Results published in US20080039515A1, “Arylpyrazoles And Methods Of Using Same For Control Of Insect Pests That Bore Into Trees” (The Texas A&M University System, priority 2004, published 2008).
Where two headings read alike, the source gives them in different places.

Columns and labels:
Ips engravers beetles = assay type: in vivo
Protocol: (§1) Study Sites: Two 20-year-old, recently thinned loblolly pine plantations were selected in Texas. Trees in one plantation were injected for use in a bolt study (Trial 1). Trees in ½ acre section of the second plantation were injected as part of a single-tree protection study (Trial 2). A staging area also was set up in the second plantation where bolts from the first plantation were exposed to bark beetles and wood borers.
Population Monitoring: A clear panel of acetate (10 cm wide by 25 cm long) was attached to the center of each bolt after deployment of bolts or 2 m high on standing trees after deployment of pheromone baits to monitor arrival of bark beetles. The top surface of each panel was coated entirely with Stikem Special® trapping compound (Michel and Pelton, Emeryville, Calif.). The traps were left in place for two weeks.
(§2) After 1 (May 24), 3 (July 19) and 5 (September) months post-injection, 5 trees of each treatment were felled and two 1.5 m long bolts were removed from the 3 m and 8 m heights of the bole. Because southern pine beetle (SPB) populations were extremely low in east Texas during the study year, Ips engravers were used as alternative bark beetles for this study. The bolts were transported to a 20-year-old loblolly plantation that was recently thinned and contained fresh slash material. Each bolt was placed about 1 m apart on discarded, dry pine bolts to maximize surface area available for colonization as well as to discourage predation by ground and litter-inhabiting organisms. To facilitate timely bark beetle colonization, packets of bark beetle pheromones (racemic ipsdienol +lanerione combination, ipsenol or cis-verbenol; Phero Tech, Inc., Delta, BC, Canada) were attached separately to three 1 m stakes evenly spaced in the study area. Racemic ipsdienol and cis-verbenol were used with the second series of bolts deployed in July. The packets were removed after 2 weeks when signs of attacks (boring dust) were observed on most test bolts, signaling that naturally-produced pheromones were present.
(§3) Treatment Evaluation: Trial 1. The first and second series of bolts were retrieved 2.5 and 3 weeks, respectively, after deployment, after observing many cerambycid attacks on most of the bolts. In the laboratory, two 10×50 cm strips (total=1000 cm^2) of bark were removed from each bolt. Several measurements were made relating to construction of nuptial chambers and egg galleries and development of brood: • 1. Number of unsuccessful attacks—penetration to phloem, but no egg galleries. • 2. Number of successful attacks—construction of nuptial chamber and at least one egg gallery extending from it. • 3. Number and lengths of egg galleries with brood galleries radiating from them. • 4. Number and lengths of egg galleries without brood galleries. • 5. Cerambycid activity, estimated by overlaying a 100 cm^2 grid over a portion of each bark strip and counting the number of squares overlapping area where cerambycids had fed.
(§4) Treatment efficacy was determined by comparing Ips beetle attacks and egg gallery length and cerambycid feeding on treated and untreated bolts. The data were transformed by log10(x+1) to satisfy criteria for normality and homoscedasticity (Zar 1984) and analyzed by GLM and the Fishers Protected LSD test using the Statview statistical program.

cerambycid larvae = assay type: in vivo, cerambycids; settings: May
Protocol: as §1, §2, §3, §4

[1] = 1 month post-injection (May), bolt height 3 m
[2] = 1 month post-injection (May), bolt height 8 m
[3] = 3 months post-injection (July), bolt height 3 m
[4] = 3 months post-injection (July), bolt height 8 m
[5] = 3 months post-injection, bolt height 3 m
[6] = 3 months post-injection, bolt height 8 m
[7] = 5 months post-injection (Sept.), bolt height 3 m
[8] = 5 months post-injection (Sept.), bolt height 8 m

For O=[N+]([O-])NC1=NCCN1Cc1ccc(Cl)nc1 [Imid], the “Length of Egg Galleries Total” value (Ips engravers beetles; [1]) was 442.2, the “Length of Egg Galleries With Brood” value (Ips engravers beetles; [1]) was 283.2 cm and the “Length of Egg Galleries With Brood % of Total” value (Ips engravers beetles; [1]) was 64.0%. For the same compound, the “Length of Egg Galleries Without Brood” value (Ips engravers beetles; [1]) was 159.0 cm, the “Length of Egg Galleries Without Brood % of Total” value (Ips engravers beetles; [1]) was 36.0% and the “Mean # of Ips caught/trap” value (Ips engravers beetles; [1]) was 5.6. The “Number of Egg Galleries Total” value (Ips engravers beetles; [1]) was 65.2, the “Number of Egg Galleries With Brood % of Total” value (Ips engravers beetles; [1]) was 46.0% and the “Number of Egg Galleries With Brood No.” value (Ips engravers beetles; [1]) was 30.0. For the same compound, the “Number of Egg Galleries Without Brood % of Total” value (Ips engravers beetles; [1]) was 54.0%, the “Number of Egg Galleries Without Brood No.” value (Ips engravers beetles; [1]) was 35.2 and the “Nuptial Chambers Total” value (Ips engravers beetles; [1]) was 18.2. For the same compound, the “Nuptial Chambers With Egg Galleries % of Total” value (Ips engravers beetles; [1]) was 89.0%, the “Nuptial Chambers With Egg Galleries No.” value (Ips engravers beetles; [1]) was 16.2 and the “Nuptial Chambers Without Egg Galleries % of Total” value (Ips engravers beetles; [1]) was 11.0%. The “Nuptial Chambers Without Egg Galleries No.” value (Ips engravers beetles; [1]) was 2.0, the “Length of Egg Galleries Total” value (Ips engravers beetles; [2]) was 315.8 and the “Length of Egg Galleries With Brood” value (Ips engravers beetles; [2]) was 197.0 cm. For the same compound, the “Length of Egg Galleries With Brood % of Total” value (Ips engravers beetles; [2]) was 62.4%, the “Length of Egg Galleries Without Brood” value (Ips engravers beetles; [2]) was 118.8 cm and the “Length of Egg Galleries Without Brood % of Total” value (Ips engravers beetles; [2]) was 37.6%. For the same compound, the “Mean # of Ips caught/trap” value (Ips engravers beetles; [2]) was 3.8, the “Number of Egg Galleries Total” value (Ips engravers beetles; [2]) was 49.0 and the “Number of Egg Galleries With Brood % of Total” value (Ips engravers beetles; [2]) was 39.6%. The “Number of Egg Galleries With Brood No.” value (Ips engravers beetles; [2]) was 19.4, the “Number of Egg Galleries Without Brood % of Total” value (Ips engravers beetles; [2]) was 60.4% and the “Number of Egg Galleries Without Brood No.” value (Ips engravers beetles; [2]) was 29.6. The “Nuptial Chambers Total” value (Ips engravers beetles; [2]) was 15.8, the “Nuptial Chambers With Egg Galleries % of Total” value (Ips engravers beetles; [2]) was 81.0% and the “Nuptial Chambers With Egg Galleries No.” value (Ips engravers beetles; [2]) was 12.8. The “Nuptial Chambers Without Egg Galleries % of Total” value (Ips engravers beetles; [2]) was 19.0%, the “Nuptial Chambers Without Egg Galleries No.” value (Ips engravers beetles; [2]) was 3.0 and the “Mean # of Ips caught/trap” value (Ips engravers beetles; [3]) was 2.6. The “Nuptial Chambers Total” value (Ips engravers beetles; [3]) was 10.8, the “Nuptial Chambers With Egg Galleries % of Total” value (Ips engravers beetles; [3]) was 61.1% and the “Nuptial Chambers With Egg Galleries No.” value (Ips engravers beetles; [3]) was 6.6. The “Nuptial Chambers Without Egg Galleries % of Total” value (Ips engravers beetles; [3]) was 38.9%, the “Nuptial Chambers Without Egg Galleries No.” value (Ips engravers beetles; [3]) was 4.2 and the “Mean # of Ips caught/trap” value (Ips engravers beetles; [4]) was 2.0. The “Nuptial Chambers Total” value (Ips engravers beetles; [4]) was 9.4, the “Nuptial Chambers With Egg Galleries % of Total” value (Ips engravers beetles; [4]) was 59.6% and the “Nuptial Chambers With Egg Galleries No.” value (Ips engravers beetles; [4]) was 5.6. The “Nuptial Chambers Without Egg Galleries % of Total” value (Ips engravers beetles; [4]) was 40.4%, the “Nuptial Chambers Without Egg Galleries No.” value (Ips engravers beetles; [4]) was 3.8 and the “Length of Egg Galleries Total” value (Ips engravers beetles; [5]) was 187.4. For the same compound, the “Length of Egg Galleries With Brood” value (Ips engravers beetles; [5]) was 151.4 cm, the “Length of Egg Galleries With Brood % of Total” value (Ips engravers beetles; [5]) was 80.8% and the “Length of Egg Galleries Without Brood” value (Ips engravers beetles; [5]) was 36.0 cm. The “Length of Egg Galleries Without Brood % of Total” value (Ips engravers beetles; [5]) was 19.2%, the “Number of Egg Galleries Total” value (Ips engravers beetles; [5]) was 20.6 and the “Number of Egg Galleries With Brood % of Total” value (Ips engravers beetles; [5]) was 68.9%. For the same compound, the “Number of Egg Galleries With Brood No.” value (Ips engravers beetles; [5]) was 14.2, the “Number of Egg Galleries Without Brood % of Total” value (Ips engravers beetles; [5]) was 31.1% and the “Number of Egg Galleries Without Brood No.” value (Ips engravers beetles; [5]) was 6.4. For the same compound, the “Length of Egg Galleries Total” value (Ips engravers beetles; [6]) was 130.0, the “Length of Egg Galleries With Brood” value (Ips engravers beetles; [6]) was 87.4 cm and the “Length of Egg Galleries With Brood % of Total” value (Ips engravers beetles; [6]) was 67.2%. The “Length of Egg Galleries Without Brood” value (Ips engravers beetles; [6]) was 42.6 cm, the “Length of Egg Galleries Without Brood % of Total” value (Ips engravers beetles; [6]) was 32.8% and the “Number of Egg Galleries Total” value (Ips engravers beetles; [6]) was 17.4. For the same compound, the “Number of Egg Galleries With Brood % of Total” value (Ips engravers beetles; [6]) was 52.9%, the “Number of Egg Galleries With Brood No.” value (Ips engravers beetles; [6]) was 9.2 and the “Number of Egg Galleries Without Brood % of Total” value (Ips engravers beetles; [6]) was 47.1%. The “Number of Egg Galleries Without Brood No.” value (Ips engravers beetles; [6]) was 8.2, the “Length of Egg Galleries Total” value (Ips engravers beetles; [7]) was 163.4 and the “Length of Egg Galleries With Brood” value (Ips engravers beetles; [7]) was 154.2 cm. The “Length of Egg Galleries With Brood % of Total” value (Ips engravers beetles; [7]) was 94.4%, the “Length of Egg Galleries Without Brood” value (Ips engravers beetles; [7]) was 9.2 cm and the “Length of Egg Galleries Without Brood % of Total” value (Ips engravers beetles; [7]) was 5.6%. For the same compound, the “Mean # of Ips caught/trap” value (Ips engravers beetles; [7]) was 1.6, the “Number of Egg Galleries Total” value (Ips engravers beetles; [7]) was 13.2 and the “Number of Egg Galleries With Brood % of Total” value (Ips engravers beetles; [7]) was 89.4%. For the same compound, the “Number of Egg Galleries With Brood No.” value (Ips engravers beetles; [7]) was 11.8, the “Number of Egg Galleries Without Brood % of Total” value (Ips engravers beetles; [7]) was 10.6% and the “Number of Egg Galleries Without Brood No.” value (Ips engravers beetles; [7]) was 1.4. For the same compound, the “Nuptial Chambers Total” value (Ips engravers beetles; [7]) was 4.6, the “Nuptial Chambers With Egg Galleries % of Total” value (Ips engravers beetles; [7]) was 95.7% and the “Nuptial Chambers With Egg Galleries No.” value (Ips engravers beetles; [7]) was 4.4. The “Nuptial Chambers Without Egg Galleries % of Total” value (Ips engravers beetles; [7]) was 4.3%, the “Nuptial Chambers Without Egg Galleries No.” value (Ips engravers beetles; [7]) was 0.2 and the “Length of Egg Galleries Total” value (Ips engravers beetles; [8]) was 164.4. The “Length of Egg Galleries With Brood” value (Ips engravers beetles; [8]) was 144.8 cm, the “Length of Egg Galleries With Brood % of Total” value (Ips engravers beetles; [8]) was 88.1% and the “Length of Egg Galleries Without Brood” value (Ips engravers beetles; [8]) was 19.6 cm. For the same compound, the “Length of Egg Galleries Without Brood % of Total” value (Ips engravers beetles; [8]) was 11.9%, the “Mean # of Ips caught/trap” value (Ips engravers beetles; [8]) was 1.5 and the “Number of Egg Galleries Total” value (Ips engravers beetles; [8]) was 18.0. For the same compound, the “Number of Egg Galleries With Brood % of Total” value (Ips engravers beetles; [8]) was 81.1%, the “Number of Egg Galleries With Brood No.” value (Ips engravers beetles; [8]) was 14.6 and the “Number of Egg Galleries Without Brood % of Total” value (Ips engravers beetles; [8]) was 18.9%. The “Number of Egg Galleries Without Brood No.” value (Ips engravers beetles; [8]) was 3.4, the “Nuptial Chambers Total” value (Ips engravers beetles; [8]) was 7.2 and the “Nuptial Chambers With Egg Galleries % of Total” value (Ips engravers beetles; [8]) was 69.4%. For the same compound, the “Nuptial Chambers With Egg Galleries No.” value (Ips engravers beetles; [8]) was 5.0, the “Nuptial Chambers Without Egg Galleries % of Total” value (Ips engravers beetles; [8]) was 30.6% and the “Nuptial Chambers Without Egg Galleries No.” value (Ips engravers beetles; [8]) was 2.2. The “reduction of cerambycid larval feeding damage” value (cerambycid larvae; bolts from 3 m) was 61% and the “reduction of cerambycid larval feeding damage” value (cerambycid larvae; bolts from 8 m) was 98%.
